Assay results: patent US20090227647A1, “Compounds, Compositions and Methods for the Treatment of Islet Amyloid Polypeptide (IAPP) Accumulation in Diabetes” (priority 2008, published 2009)

Key:
[1] = target: T1, Amylin/IAPP fibrils (Homo sapiens, UniProt P10997); experiment: Congo red binding assay, Amylin/IAPP fibrils; assay type: biochemical; settings: 3-day incubation
T1 sequence (P10997 34-70 limits assumed): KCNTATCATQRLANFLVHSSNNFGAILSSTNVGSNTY
Experimental: In the Congo red binding assay the ability of a given test compound to alter amyloid binding to Congo red was quantified. In this assay, IAPP fibrils and test compounds were incubated for 3 days and then vacuum filtered through a 0.2 μm filter. The amount of IAPP fibrils retained in the filter was then quantitated following staining of the filter with Congo red. After appropriate washing of the filter, any lowering of the Congo red color on the filter in the presence of the test compound (compared to the Congo red staining of the amyloid protein in the absence of the test compound) was indicative of the test compound's ability to diminish/alter the amount of aggregated and congophilic IAPP fibrils.
In the Congo red binding assay the ability of a test compound to alter Amylin/IAPP binding to Congo red is quantified. In this assay, Amylin/IAPP and test compounds were incubated for 3 days and then vacuum filtered through a 0.2 μm filter. The amount of Amylin/IAPP retained in the filter was then quantitated following staining of the filter with Congo red. After appropriate washing of the filter, any lowering of the Congo red color retained on the filter in the presence of the test compound (compared to the Congo red staining of the Amylin/IAPP protein in the absence of the test compound) was indicative of the test compound's ability to diminish/alter the amount of aggregated and/or congophilic Amylin/IAPP.

[2] = target: T2, pre-fibrillized Amylin/IAPP fibrils (Homo sapiens, UniProt P10997); experiment: Thioflavin T fluorometry, disruption/disassembly of pre-formed Amylin/IAPP fibrils; assay type: biochemical; settings: for % Inhibition Amylin/IAPP (result ± S.D.), Thioflavin T fluorometry: 3-day incubation at 37° C.; for disruption/disassembly of preformed Amylin/IAPP fibrils (result in words), Thioflavin T fluorometry: all concentrations tested (wt/wt ratios 1:1 to 1:0.001)
T2 construct: purchased Bachem Inc
T2 sequence (P10997 34-70 limits assumed): T1 sequence (P10997 34-70 limits assumed)
Experimental: The biological activity of the compounds provided herein as disruptors/inhibitors of IAPP amyloid protein fibrils, was assessed by determining the efficacy of the compounds to cause a disassembly/disruption of pre-formed IAPP amyloid fibrils. […] In this assay Thioflavin T binds specifically to fibrillar amyloid, and this binding produces a fluorescence enhancement at 485 nm that is directly proportional to the amount of fibrils present. The higher the fluorescence, the greater the amount of fibrils present (Naki et al, Lab. Invest. 65:104-110, 1991; Levine III, Protein Sci. 2:404-410, 1993; Amyloid: Int. J. Exp. Clin. Invest. 2:1-6, 1995).
In this assay Thioflavin T binds specifically to fibrillar amyloid, and this binding produces a fluorescence enhancement at 485 nm that is directly proportional to the amount of amyloid fibrils formed. The higher the fluorescence, the greater the amount of amyloid fibrils formed (Naki et al., Lab. Invest. 65:104-110, 1991; Levine III, Protein Sci. 2:404-410, 1993; Amyloid: Int. J. Exp. Clin. Invest. 2:1-6, 1995). The same premise is applied to Amylin/IAPP fibrils.
Following 3-days of co-incubation, 50 μl of each incubation mixture was transferred into a 96-well microtiter plate containing 150 μl of distilled water and 50 μl of a Thioflavin T solution (i.e. 500 mM Thioflavin T in 250 mM phosphate buffer, pH 6.8). The fluorescence was read at 485 nm (444 nm excitation wavelength) using an ELISA plate fluorometer after subtraction with buffer alone or compound alone, as blank.

[3] = Amylin/IAPP:test compound wt/wt ratio 1:0.001
[4] = Amylin/IAPP:test compound wt/wt ratio 1:0.01
[5] = Amylin/IAPP:test compound wt/wt ratio 1:0.1
[6] = Amylin/IAPP:test compound wt/wt ratio 1:1

O=C(Nc1ccc(O)c(O)c1)c1cccc(O)c1O [Compound 1, 2,3 dihydroxybenzoic Acid 3,4 Dihydroxyanilide]
% Inhibition Amylin/IAPP (result ± S.D.), Congo red binding [1, 3]: 0.0 ± 6.44%
% Inhibition Amylin/IAPP (result ± S.D.), Congo red binding [1, 4]: 7.8 ± 6.13%
% Inhibition Amylin/IAPP (result ± S.D.), Congo red binding [1, 5]: 35.7 ± 5.12%
% Inhibition Amylin/IAPP (result ± S.D.), Congo red binding [1, 6]: 58.1 ± 6.67%
% Inhibition Amylin/IAPP (result ± S.D.), Thioflavin T fluorometry [2, 3]: 14.3 ± 3.56%
% Inhibition Amylin/IAPP (result ± S.D.), Thioflavin T fluorometry [2, 4]: 60.9±0.61%
% Inhibition Amylin/IAPP (result ± S.D.), Thioflavin T fluorometry [2, 5]: 95.1±0.48%
% Inhibition Amylin/IAPP (result ± S.D.), Thioflavin T fluorometry [2, 6]: 98.5 ± 0.26%
disruption/disassembly of preformed Amylin/IAPP fibrils (result in words), Thioflavin T fluorometry [2]: most efficacious

O=C(Nc1cccc(O)c1O)c1ccc(O)c(O)c1 [Compound 2, 3,4 dihydroxybenzoic Acid 2,3 Dihydroxyanilide]
% Inhibition Amylin/IAPP (result ± S.D.), Congo red binding [1, 3]: 5.3 ± 6.75%
% Inhibition Amylin/IAPP (result ± S.D.), Congo red binding [1, 4]: 5.2 ± 0.23%
% Inhibition Amylin/IAPP (result ± S.D.), Congo red binding [1, 5]: 33.5 ± 6.38%
% Inhibition Amylin/IAPP (result ± S.D.), Congo red binding [1, 6]: 45.8 ± 1.62%
% Inhibition Amylin/IAPP (result ± S.D.), Thioflavin T fluorometry [2, 3]: 5.1 ± 4.57%
% Inhibition Amylin/IAPP (result ± S.D.), Thioflavin T fluorometry [2, 4]: 52.9 ± 4.36%
% Inhibition Amylin/IAPP (result ± S.D.), Thioflavin T fluorometry [2, 5]: 92.6 ± 0.84%
% Inhibition Amylin/IAPP (result ± S.D.), Thioflavin T fluorometry [2, 6]: 99.4 ± 1.69%

O=C(Nc1cccc(O)c1O)c1cccc(O)c1O [Compound 3, 2,3 dihydroxybenzoic Acid 2,3 Dihydroxyanilide]
% Inhibition Amylin/IAPP (result ± S.D.), Congo red binding [1, 3]: 7.1 ± 4.14%
% Inhibition Amylin/IAPP (result ± S.D.), Congo red binding [1, 4]: 3.6 ± 1.16%
% Inhibition Amylin/IAPP (result ± S.D.), Congo red binding [1, 5]: 26.0 ± 5.79%
% Inhibition Amylin/IAPP (result ± S.D.), Congo red binding [1, 6]: 60.1 ± 3.78%
% Inhibition Amylin/IAPP (result ± S.D.), Thioflavin T fluorometry [2, 3]: 5.0 ± 6.78%
% Inhibition Amylin/IAPP (result ± S.D.), Thioflavin T fluorometry [2, 4]: 51.7±3.56%
% Inhibition Amylin/IAPP (result ± S.D.), Thioflavin T fluorometry [2, 5]: 94.5±0.91%
% Inhibition Amylin/IAPP (result ± S.D.), Thioflavin T fluorometry [2, 6]: 99.3 ± 0.6%
disruption/disassembly of preformed Amylin/IAPP fibrils (result in words), Thioflavin T fluorometry [2]: most efficacious

CN(C(=O)c1ccc(O)c(O)c1)c1ccc(O)c(O)c1 [Compound 4, 3,4 Dihydroxybenzoic Acid 3,4 Dihydroxy N-methyl Anilide]
% Inhibition Amylin/IAPP (result ± S.D.), Congo red binding [1, 3]: 0.0 ± 7.35%
% Inhibition Amylin/IAPP (result ± S.D.), Congo red binding [1, 4]: 8.0 ± 4.62%
% Inhibition Amylin/IAPP (result ± S.D.), Congo red binding [1, 5]: 46.0±7.43%
% Inhibition Amylin/IAPP (result ± S.D.), Congo red binding [1, 6]: 70.8±1.55%
% Inhibition Amylin/IAPP (result ± S.D.), Thioflavin T fluorometry [2, 3]: 9.8 ± 7.47%
% Inhibition Amylin/IAPP (result ± S.D.), Thioflavin T fluorometry [2, 4]: 57.4±1.61%
% Inhibition Amylin/IAPP (result ± S.D.), Thioflavin T fluorometry [2, 5]: 95.4±0.23%
% Inhibition Amylin/IAPP (result ± S.D.), Thioflavin T fluorometry [2, 6]: 100.0 ± 0.09%
disruption/disassembly of preformed Amylin/IAPP fibrils (result in words), Thioflavin T fluorometry [2]: most efficacious

O=S(=O)(Nc1ccc(O)c(O)c1)c1ccc(O)c(O)c1 [Compound 5, 3,4 Dihydroxybenzenesulfonic acid 3,4 Dihydroxysulfonamide]
% Inhibition Amylin/IAPP (result ± S.D.), Congo red binding [1, 3]: 3.5 ± 2.40%
% Inhibition Amylin/IAPP (result ± S.D.), Congo red binding [1, 4]: 8.3 ± 6.91%
% Inhibition Amylin/IAPP (result ± S.D.), Congo red binding [1, 5]: 43.4 ± 3.39%
% Inhibition Amylin/IAPP (result ± S.D.), Congo red binding [1, 6]: 54.6 ± 14.22%
% Inhibition Amylin/IAPP (result ± S.D.), Thioflavin T fluorometry [2, 3]: 14.1 ± 1.62%
% Inhibition Amylin/IAPP (result ± S.D.), Thioflavin T fluorometry [2, 4]: 56.7±0.4%
% Inhibition Amylin/IAPP (result ± S.D.), Thioflavin T fluorometry [2, 5]: 93.7±1.13%
% Inhibition Amylin/IAPP (result ± S.D.), Thioflavin T fluorometry [2, 6]: 99.7 ± 0.38%
disruption/disassembly of preformed Amylin/IAPP fibrils (result in words), Thioflavin T fluorometry [2]: most efficacious

Oc1ccc(-c2cnc(-c3ccc(O)c(O)c3)[nH]2)cc1O [Compound 6, 2,4 bis(3,4 dihydroxyphenyl) Imidazole]
% Inhibition Amylin/IAPP (result ± S.D.), Congo red binding [1, 3]: 5.2 ± 2.31%
% Inhibition Amylin/IAPP (result ± S.D.), Congo red binding [1, 4]: 1.0 ± 4.82%
% Inhibition Amylin/IAPP (result ± S.D.), Congo red binding [1, 5]: 36.4 ± 12.77%
% Inhibition Amylin/IAPP (result ± S.D.), Congo red binding [1, 6]: 80.7 ± 0.75%
% Inhibition Amylin/IAPP (result ± S.D.), Thioflavin T fluorometry [2, 3]: 17.2 ± 4.22%
% Inhibition Amylin/IAPP (result ± S.D.), Thioflavin T fluorometry [2, 4]: 68.9±3.33%
% Inhibition Amylin/IAPP (result ± S.D.), Thioflavin T fluorometry [2, 5]: 96.3±0.76%
% Inhibition Amylin/IAPP (result ± S.D.), Thioflavin T fluorometry [2, 6]: 100.0 ± 0.26%
disruption/disassembly of preformed Amylin/IAPP fibrils (result in words), Thioflavin T fluorometry [2]: most efficacious

Oc1ccc(-c2nnc(-c3ccc(O)c(O)c3)[nH]2)cc1O [Compound 7, 3,5 bis(3,4 Dihydroxyphenyl) 1,2,4 Triazole]
% Inhibition Amylin/IAPP (result ± S.D.), Congo red binding [1, 3]: 9.1 ± 1.29%
% Inhibition Amylin/IAPP (result ± S.D.), Congo red binding [1, 5]: 44.1 ± 5.62%
% Inhibition Amylin/IAPP (result ± S.D.), Congo red binding [1, 6]: 66.2±7.81%
% Inhibition Amylin/IAPP (result ± S.D.), Thioflavin T fluorometry [2, 3]: 4.6 ± 4.34%
% Inhibition Amylin/IAPP (result ± S.D.), Thioflavin T fluorometry [2, 4]: 41.4 ± 2.13%
% Inhibition Amylin/IAPP (result ± S.D.), Thioflavin T fluorometry [2, 5]: 89.7 ± 0.54%
% Inhibition Amylin/IAPP (result ± S.D.), Thioflavin T fluorometry [2, 6]: 99.8 ± 0.31%

Oc1ccc(-c2cc(-c3ccc(O)c(O)c3)[nH]n2)cc1O [Compound 8, 3,5 bis(3,4 Dihydroxyphenyl)Pyrazole]
% Inhibition Amylin/IAPP (result ± S.D.), Congo red binding [1, 3]: 1.7 ± 1.98%
% Inhibition Amylin/IAPP (result ± S.D.), Congo red binding [1, 4]: 20.2 ± 7.11%
% Inhibition Amylin/IAPP (result ± S.D.), Congo red binding [1, 5]: 39.7 ± 7.20%
% Inhibition Amylin/IAPP (result ± S.D.), Congo red binding [1, 6]: 74.9 ± 1.26%
% Inhibition Amylin/IAPP (result ± S.D.), Thioflavin T fluorometry [2, 3]: 8.1 ± 1.54%
% Inhibition Amylin/IAPP (result ± S.D.), Thioflavin T fluorometry [2, 4]: 48.4 ± 0.31%
% Inhibition Amylin/IAPP (result ± S.D.), Thioflavin T fluorometry [2, 5]: 91.2 ± 0.76%
% Inhibition Amylin/IAPP (result ± S.D.), Thioflavin T fluorometry [2, 6]: 99.0 ± 1.05%

Oc1ccc(C23CC4CC(C2)CC(c2ccc(O)c(O)c2)(C4)C3)cc1O [Compound 9, 1,3 bis(3,4 dihydroxyphenyl) Adamantane]
% Inhibition Amylin/IAPP (result ± S.D.), Congo red binding [1, 3]: 16.5 ± 9.88%
% Inhibition Amylin/IAPP (result ± S.D.), Congo red binding [1, 4]: 12.0 ± 8.03%
% Inhibition Amylin/IAPP (result ± S.D.), Congo red binding [1, 5]: 41.2 ± 5.64%
% Inhibition Amylin/IAPP (result ± S.D.), Congo red binding [1, 6]: 88.6 ± 2.08%
% Inhibition Amylin/IAPP (result ± S.D.), Thioflavin T fluorometry [2, 3]: 4.3 ± 2.29%
% Inhibition Amylin/IAPP (result ± S.D.), Thioflavin T fluorometry [2, 4]: 36.6 ± 3.55%
% Inhibition Amylin/IAPP (result ± S.D.), Thioflavin T fluorometry [2, 5]: 88.5 ± 0.31%
% Inhibition Amylin/IAPP (result ± S.D.), Thioflavin T fluorometry [2, 6]: 97.6 ± 0.31%
